According to patent publication US9885703B2, “Evaluation method and screening method for sphingosine-1-phosphate 1 (S1P1) receptor agonists” (MEIJI SEIKA PHARMA CO., LTD., priority 2013, dated 2018):
Read-outs that look alike come from different tables or passages of the source.

What was measured:
[1] = biological target: T1, S1P1 receptor coupled to Gαi3 (Homo sapiens, UniProt P21453); experiment: Gα subtype-specific S1P1 receptor agonist activity (BRET, NPL 7), HEK 293T cells co-expressing S1P1 receptor, Gαi3, Gγ2 and Gβ1; type: cell-based; details: Gαi3 expressed
T1 construct: expressed in transfected cells; host or cells: HEK 293T cells
T1 sequence (P21453 whole entry): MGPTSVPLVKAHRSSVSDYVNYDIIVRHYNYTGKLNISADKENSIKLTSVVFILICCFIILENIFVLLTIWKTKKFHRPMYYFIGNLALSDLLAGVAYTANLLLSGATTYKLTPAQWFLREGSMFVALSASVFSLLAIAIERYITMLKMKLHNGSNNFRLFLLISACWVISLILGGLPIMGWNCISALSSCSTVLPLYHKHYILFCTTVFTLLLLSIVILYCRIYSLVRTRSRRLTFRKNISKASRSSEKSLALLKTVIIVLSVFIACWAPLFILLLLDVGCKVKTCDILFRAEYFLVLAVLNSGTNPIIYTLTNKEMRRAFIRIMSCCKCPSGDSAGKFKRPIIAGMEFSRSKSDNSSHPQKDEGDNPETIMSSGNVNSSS
T1 sequence (P08754 2-354 partner limits assumed): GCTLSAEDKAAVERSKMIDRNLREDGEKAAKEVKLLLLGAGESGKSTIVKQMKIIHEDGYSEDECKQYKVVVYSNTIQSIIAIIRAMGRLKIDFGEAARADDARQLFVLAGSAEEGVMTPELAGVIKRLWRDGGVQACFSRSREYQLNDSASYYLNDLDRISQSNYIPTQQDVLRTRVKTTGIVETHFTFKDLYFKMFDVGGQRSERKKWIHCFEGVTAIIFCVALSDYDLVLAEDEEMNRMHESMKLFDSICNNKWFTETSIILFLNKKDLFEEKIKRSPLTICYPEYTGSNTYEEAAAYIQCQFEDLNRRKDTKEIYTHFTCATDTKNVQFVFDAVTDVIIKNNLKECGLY
T1 sequence (P62873 2-340 partner limits assumed): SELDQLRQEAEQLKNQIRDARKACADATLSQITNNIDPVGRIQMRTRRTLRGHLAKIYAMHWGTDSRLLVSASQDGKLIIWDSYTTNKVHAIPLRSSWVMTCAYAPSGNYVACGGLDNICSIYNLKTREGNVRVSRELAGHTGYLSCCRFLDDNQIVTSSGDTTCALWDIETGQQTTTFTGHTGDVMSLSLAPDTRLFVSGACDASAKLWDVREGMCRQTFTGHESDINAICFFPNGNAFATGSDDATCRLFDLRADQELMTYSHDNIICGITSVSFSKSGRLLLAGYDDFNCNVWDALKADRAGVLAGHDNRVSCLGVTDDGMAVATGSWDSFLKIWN
T1 sequence (P59768 2-68 partner limits assumed): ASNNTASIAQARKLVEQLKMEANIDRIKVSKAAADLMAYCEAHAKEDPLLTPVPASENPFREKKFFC
From the text: (§1) In the present invention, an agonist activity specific to a Gαi subtype can be measured, for example, according to the method described in the present Example 1 (2) (the method described in NPL 7). To be more specific, by allowing cells to express an S1P1 receptor and a particular Gα subtype together with Gγ2 and Gβ1, an agonist activity can be measured on the basis of a difference in percentage between the Gα protein and the Gβγ protein caused by an S1P1 receptor agonist.
(§2) Next, the Gα protein subtype-specific S1P1 receptor agonist activities were evaluated according to the method described in NPL 7. Note that the expression conditions followed the section of “Supplementary Methods” in NPL 7, and the measurement conditions followed the section of “Bioluminescence resonance energy transfer measurement.”
(§3) First, HEK 293T cells were allowed to co-express an S1P1 receptor, a particular Gα subtype (Gαi1, Gαi2, or Gαi3), Gγ2, and Gβ1. Then, on the basis of a difference in percentage between the Gα protein and the Gβγ protein caused by the endogenous agonist S1P, the agonist activity was measured.

complete AV block = experiment: Cardiotoxicity evaluation: AV block in guinea pigs under anesthesia; type: in vivo, male guinea pigs; details: anesthetized guinea pigs, 0.01 mg/kg by infusion for 10 minutes
Description: (§4) In this model, the guinea pigs used were highly responsive to an S1P1 receptor, and further the model was capable of reliable detection of S1P1 receptor-dependent cardiotoxicity under anesthesia. An electrocardiograph and a pacing device were attached to the male guinea pigs whose breathings were artificially controlled under anesthesia, and the drugs were administered.

[2] = biological target: T2, S1P1 receptor coupled to Gαi1 (Homo sapiens, UniProt P21453); experiment: Gα subtype-specific S1P1 receptor agonist activity (BRET, NPL 7), HEK 293T cells co-expressing S1P1 receptor, Gαi1, Gγ2 and Gβ1; type: cell-based; details: Gαi1 expressed
T2 construct: expressed in transfected cells; host or cells: HEK 293T cells
T2 sequence (P21453 whole entry): as the sequence (P21453 whole entry) above
T2 sequence (P63096 2-354 partner limits assumed): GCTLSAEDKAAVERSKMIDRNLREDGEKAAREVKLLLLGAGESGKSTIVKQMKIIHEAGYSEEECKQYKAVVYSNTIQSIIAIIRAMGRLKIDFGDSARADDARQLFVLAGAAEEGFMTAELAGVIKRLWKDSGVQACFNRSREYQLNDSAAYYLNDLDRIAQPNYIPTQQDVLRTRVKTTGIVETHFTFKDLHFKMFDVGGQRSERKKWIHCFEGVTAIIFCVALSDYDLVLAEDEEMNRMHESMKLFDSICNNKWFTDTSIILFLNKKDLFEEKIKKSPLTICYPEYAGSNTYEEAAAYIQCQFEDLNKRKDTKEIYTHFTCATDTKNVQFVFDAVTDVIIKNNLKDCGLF
T2 sequence (P62873 2-340 partner limits assumed): as the sequence (P62873 2-340 partner limits assumed) above
T2 sequence (P59768 2-68 partner limits assumed): as the sequence (P59768 2-68 partner limits assumed) above
From the text: as §1, §2, §3

S1P1 receptor = biological target: T3, S1P1 receptor (Homo sapiens, UniProt P21453); experiment: General S1P1 receptor agonist activity, CHO cells expressing S1P1 receptor (method of Experimental Example 1 of PTL 1); type: cell-based; details: method of PTL 1
T3 construct: expressed in transfected cells; host or cells: CHO cells
T3 sequence (P21453 whole entry): as the sequence (P21453 whole entry) above
From the text: As a general method for evaluating an S1P1 receptor agonist activity, there has been known a method which uses CHO cells expressing a S1P1 receptor, and the like to measure an agonist activity on the basis of binding to the receptor and a signal transduction activity through the binding (PTL 1).

[3] = Blood concentration in the guinea pig cardiotoxicity model; type: in vivo; details: male, whole blood, intravenous, guinea pigs, 0.01 mg/kg infusion for 10 minutes
Description: as §4
In addition, the blood concentrations of BAF312 and the compound B when the administrations were completed were respectively 17 nM and 91 nM. The blood concentrations after 1 hour were respectively <4 nM and 27 nM.

[4] = tested on: number of lymphocytic cells in blood; experiment: Efficacy evaluation: number of lymphocytic cells in blood after oral administration; type: in vivo; details: male SD rats; for ED50: Rattus norvegicus
Description: BAF312 or the compound B was orally administered to male SD rats at different doses. After 3, 6, and 24 hours, and the number of lymphocytic cells in blood was counted using a blood cell counter.

[5] = biological target: T4, S1P1 receptor coupled to Gαi2 (Homo sapiens, UniProt P21453); experiment: Gα subtype-specific S1P1 receptor agonist activity (BRET, NPL 7), HEK 293T cells co-expressing S1P1 receptor, Gαi2, Gγ2 and Gβ1; type: cell-based; details: Gαi2 expressed
T4 construct: expressed in transfected cells; host or cells: HEK 293T cells
T4 sequence (P21453 whole entry): as above
T4 sequence (P04899 2-355 partner limits assumed): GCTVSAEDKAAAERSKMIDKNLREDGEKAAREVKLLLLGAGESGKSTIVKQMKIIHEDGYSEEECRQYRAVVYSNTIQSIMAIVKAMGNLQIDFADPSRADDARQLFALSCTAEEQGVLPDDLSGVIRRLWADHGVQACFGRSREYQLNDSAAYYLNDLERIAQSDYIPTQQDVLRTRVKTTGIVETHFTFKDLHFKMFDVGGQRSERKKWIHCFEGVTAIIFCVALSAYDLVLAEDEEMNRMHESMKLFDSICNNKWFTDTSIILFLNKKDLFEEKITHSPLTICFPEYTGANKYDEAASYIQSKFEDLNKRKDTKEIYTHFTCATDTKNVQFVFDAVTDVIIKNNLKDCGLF
T4 sequence (P62873 2-340 partner limits assumed): as the sequence (P62873 2-340 partner limits assumed) above
T4 sequence (P59768 2-68 partner limits assumed): as the sequence (P59768 2-68 partner limits assumed) above
From the text: as §1, §2, §3

S1P receptor = details: reported generally, varies with evaluation method; read-out: 50% activation concentration (EC50 value) as an agonist activity against an S1P receptor; cited from earlier work

With `CCc1cc(/C(C)=N/OCc2ccc(C3CCCCC3)c(C(F)(F)F)c2)ccc1CN1CC(C(=O)O)C1` [BAF312, Siponimod] the EC50 [1] was 27 nM, the “expression of complete AV block (cases)” value (complete AV block; four cases) was “four out of four cases” and the “continuation of complete AV block” value (complete AV block; until 1 hour) was “continued in all the cases until 1 hour elapsed”. It also gave an EC50 [2] of 122 nM, an EC50 (S1P1 receptor) of 3 nM and a concentration at 1 h ([3]; after 1 hour) of less than 4 nM. For the same compound, the concentration at 10 min ([3]; end of administration, read-out: blood concentration when the administration was completed) was 17 nM, the ED50 ([4]; 6 hours, read-out: dose for suppressing the number of lymphocytic cells by 50% (ED50) after 6 hours) was 0.1 mg/kg and the ED50 ([4]; 24 hours, read-out: dose for suppressing the number of lymphocytic cells by 50% (ED50) after 24 hours) was greater than 1 mg/kg. For the same compound, the “effective blood concentration after 24 hours” value ([4]; 24 hours, calculated) was greater than 208 nM and the EC50 [5] was 81 nM.
In the case of `CCCCCCCCCCCCC/C=C/[C@@H](O)[C@@H](N)COP(=O)(O)O` [Compound S1P, sphingosine-1-phosphate], the EC50 [1] is reported as 8.4 nM, the EC50 [2] is reported as 261 nM and the EC50 (S1P1 receptor) is reported as 6.4 nM. The EC50 (S1P receptor) was roughly 10 nM and the EC50 [5] was 14.6 nM.
